Measurements published in ChEMBL document CHEMBL1201862, “PubChem BioAssay data set” (2004).
The source made the active and inactive calls.

Experiments:
[1] = biological target: Acyl-homoserine lactone acylase PvdQ (Pseudomonas aeruginosa (strain LESB58), UniProt Q9I194); assay: P. aeruginosa PvdQ acylase inhibitors, dose response, biochemical, fluorescence, plate reader and imaging, cherry-picks (AID 493231)
Hexokinase = Hexokinase (Trypanosoma brucei, UniProt Q38C41); assay: Confirmation assay for inhibitors of Trypanosoma brucei hexokinase 1-Analogue-first series. [Related pubchem assays (depositor defined):AID1430, AID1632, AID2516, AID2560, AID2579, AID2600, AID449725, AID492951]; assay type: functional
Chain of Hexokinase (Q38C41 whole entry): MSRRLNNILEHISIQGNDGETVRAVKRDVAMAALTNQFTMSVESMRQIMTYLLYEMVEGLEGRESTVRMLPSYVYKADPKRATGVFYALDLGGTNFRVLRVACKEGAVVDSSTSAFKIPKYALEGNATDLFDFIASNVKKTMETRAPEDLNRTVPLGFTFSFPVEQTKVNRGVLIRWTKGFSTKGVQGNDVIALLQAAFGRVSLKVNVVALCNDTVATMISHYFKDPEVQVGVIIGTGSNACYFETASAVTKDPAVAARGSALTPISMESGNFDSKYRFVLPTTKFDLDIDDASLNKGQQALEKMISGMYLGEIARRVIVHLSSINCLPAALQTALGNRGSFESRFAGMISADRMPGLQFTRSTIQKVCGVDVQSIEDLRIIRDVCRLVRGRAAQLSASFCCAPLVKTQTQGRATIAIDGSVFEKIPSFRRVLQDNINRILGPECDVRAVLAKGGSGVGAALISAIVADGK

[2] = biological target: Ras and Rab interactor 1/Tyrosine-protein kinase ABL1 (Homo sapiens, UniProt P00519+Q13671); assay type: functional;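 note: biochemical TR-FRET dose-response test measuring inhibition of binding between Rin1 and Abl proteins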
[3] = biological target: T1, Small ubiquitin-related modifier 1 (Homo sapiens, UniProt P63165); assay: inhibitors of SUMO1 peptide binding, dose response, biochemical, fluorescence polarization, uHTS hits (AID 624382); assay type: functional; conditions: read-out: IC50_Mean
T1 sequence (P63165 whole entry): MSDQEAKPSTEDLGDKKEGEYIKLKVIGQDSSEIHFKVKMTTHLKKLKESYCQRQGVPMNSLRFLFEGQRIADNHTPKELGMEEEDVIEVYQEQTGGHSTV

INS1 = assay: beta cell apoptosis inhibitors, cytokine rescue, dose response, luminescence, retest (AID 449756); assay type: functional, cell-based; conditions: Rattus norvegicus;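 note: cell death triggered by IL-1 beta plus TNF-alpha plus IFN-gamma mixture; protective hits raise ATP signal compared with cytokine alone wells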
SUMO-activating enzyme [4] = biological target: T2, SUMO-activating enzyme (Homo sapiens, UniProt Q9UBT2); assay: SUMOylation inhibitor hit validation, confirmation, SUMOylation inhibitor project, biochemical, AlphaScreen (AID 2018); assay type: functional
T2 sequence (Q9UBE0 whole entry): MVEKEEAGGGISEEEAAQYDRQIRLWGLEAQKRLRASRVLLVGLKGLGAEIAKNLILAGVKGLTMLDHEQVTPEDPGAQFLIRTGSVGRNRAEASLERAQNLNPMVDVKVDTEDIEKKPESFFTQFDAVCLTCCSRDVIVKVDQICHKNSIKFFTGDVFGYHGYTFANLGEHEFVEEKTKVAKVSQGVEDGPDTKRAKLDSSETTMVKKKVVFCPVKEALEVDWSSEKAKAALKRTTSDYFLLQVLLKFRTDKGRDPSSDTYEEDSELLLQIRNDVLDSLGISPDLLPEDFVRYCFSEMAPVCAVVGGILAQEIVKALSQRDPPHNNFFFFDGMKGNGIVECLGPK
T2 sequence (Q9UBT2 whole entry): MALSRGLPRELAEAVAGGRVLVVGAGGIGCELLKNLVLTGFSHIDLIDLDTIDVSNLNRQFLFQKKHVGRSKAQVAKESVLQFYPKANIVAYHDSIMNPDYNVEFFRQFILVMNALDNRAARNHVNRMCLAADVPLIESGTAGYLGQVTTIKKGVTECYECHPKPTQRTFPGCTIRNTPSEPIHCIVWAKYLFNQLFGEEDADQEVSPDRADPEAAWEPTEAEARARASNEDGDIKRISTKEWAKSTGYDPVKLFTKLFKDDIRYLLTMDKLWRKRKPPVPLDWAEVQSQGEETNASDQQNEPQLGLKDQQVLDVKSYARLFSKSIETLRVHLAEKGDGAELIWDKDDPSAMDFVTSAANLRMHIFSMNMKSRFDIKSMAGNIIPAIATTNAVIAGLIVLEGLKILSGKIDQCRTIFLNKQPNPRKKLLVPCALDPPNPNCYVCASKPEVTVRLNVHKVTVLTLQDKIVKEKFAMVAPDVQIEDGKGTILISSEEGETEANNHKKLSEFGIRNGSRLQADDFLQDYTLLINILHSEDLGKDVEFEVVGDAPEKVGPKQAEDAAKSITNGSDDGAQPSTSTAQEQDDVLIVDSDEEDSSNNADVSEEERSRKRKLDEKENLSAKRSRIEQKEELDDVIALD

[5] = biological target: T3, Bifunctional protein GlmU (Mycobacterium tuberculosis, UniProt P9WMN3); assay: Inhibitors of Mycobacterial Glucosamine-1-phosphate acetyl transferase (GlmU). Secondary screen.; parameters: species or system Mycobacterium tuberculosis H37Rv
T3 sequence (P9WMN3 whole entry): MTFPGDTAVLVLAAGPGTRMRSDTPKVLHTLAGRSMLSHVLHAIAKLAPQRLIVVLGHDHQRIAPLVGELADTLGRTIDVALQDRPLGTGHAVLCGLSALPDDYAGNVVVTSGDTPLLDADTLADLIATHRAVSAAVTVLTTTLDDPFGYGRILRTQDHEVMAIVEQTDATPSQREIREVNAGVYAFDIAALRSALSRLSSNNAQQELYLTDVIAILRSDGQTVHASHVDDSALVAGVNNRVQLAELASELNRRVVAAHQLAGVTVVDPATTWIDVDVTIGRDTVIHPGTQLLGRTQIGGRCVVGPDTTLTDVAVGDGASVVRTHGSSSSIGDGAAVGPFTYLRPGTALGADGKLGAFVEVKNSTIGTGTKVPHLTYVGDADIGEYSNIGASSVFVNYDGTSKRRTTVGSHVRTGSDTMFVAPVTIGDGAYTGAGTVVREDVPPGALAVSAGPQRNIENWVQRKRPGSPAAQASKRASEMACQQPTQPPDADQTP

[6] = biological target: T4, Induced myeloid leukemia cell differentiation protein Mcl-1 (Homo sapiens, UniProt Q07820); assay: MCL1-BIM BH3 interaction inhibitors, dose response, biochemical, fluorescence polarization, BIM-BH3 peptide, 1536-well (AID 2217)
T4 sequence (Q07820 whole entry): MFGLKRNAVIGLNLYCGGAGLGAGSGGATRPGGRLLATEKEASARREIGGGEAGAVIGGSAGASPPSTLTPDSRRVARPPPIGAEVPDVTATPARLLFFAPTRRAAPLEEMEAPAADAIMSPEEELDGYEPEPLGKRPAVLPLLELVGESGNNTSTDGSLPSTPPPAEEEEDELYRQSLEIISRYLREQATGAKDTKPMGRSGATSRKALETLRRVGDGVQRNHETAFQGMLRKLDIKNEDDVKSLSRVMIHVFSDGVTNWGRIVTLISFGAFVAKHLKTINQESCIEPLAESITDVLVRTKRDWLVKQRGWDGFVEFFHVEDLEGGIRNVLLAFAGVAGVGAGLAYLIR

[7] = biological target: T4, Induced myeloid leukemia cell differentiation protein Mcl-1; assay type: functional
SUMO-activating enzyme [8] = biological target: T2, SUMO-activating enzyme; assay: inhibitors of in vitro SUMOylation cascade, primary screen, biochemical, HTRF, uHTS (AID 2006); assay type: protein-complex assay
[9] = biological target: T1, Small ubiquitin-related modifier 1; assay: inhibitors of SUMO1 partner interactions, dose response, biochemical, FRET (AID 624383); assay type: functional; conditions: read-out: IC50_Mean
Bcl-2-like protein 1 = Bcl-2-like protein 1 (Homo sapiens, UniProt Q07817); assay: BCL-XL inhibitors, dose response, selectivity assay for MCL1 inhibitor project, biochemical, fluorescence polarization, 1536-well (AID 2218)
Chain of Bcl-2-like protein 1 (Q07817 whole entry): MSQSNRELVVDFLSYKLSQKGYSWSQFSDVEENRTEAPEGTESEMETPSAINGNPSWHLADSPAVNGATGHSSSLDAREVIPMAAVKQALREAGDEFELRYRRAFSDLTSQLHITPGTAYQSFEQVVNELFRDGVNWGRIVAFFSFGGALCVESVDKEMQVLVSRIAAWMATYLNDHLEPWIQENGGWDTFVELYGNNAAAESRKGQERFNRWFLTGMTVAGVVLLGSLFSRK

Coagulation factor XII = biological target: T5, Coagulation factor XII (Homo sapiens, UniProt P00748); assay: FXIIa inhibitor potency, concentration-response, biochemical (AID 716); assay type: functional
T5 sequence (P00748 whole entry): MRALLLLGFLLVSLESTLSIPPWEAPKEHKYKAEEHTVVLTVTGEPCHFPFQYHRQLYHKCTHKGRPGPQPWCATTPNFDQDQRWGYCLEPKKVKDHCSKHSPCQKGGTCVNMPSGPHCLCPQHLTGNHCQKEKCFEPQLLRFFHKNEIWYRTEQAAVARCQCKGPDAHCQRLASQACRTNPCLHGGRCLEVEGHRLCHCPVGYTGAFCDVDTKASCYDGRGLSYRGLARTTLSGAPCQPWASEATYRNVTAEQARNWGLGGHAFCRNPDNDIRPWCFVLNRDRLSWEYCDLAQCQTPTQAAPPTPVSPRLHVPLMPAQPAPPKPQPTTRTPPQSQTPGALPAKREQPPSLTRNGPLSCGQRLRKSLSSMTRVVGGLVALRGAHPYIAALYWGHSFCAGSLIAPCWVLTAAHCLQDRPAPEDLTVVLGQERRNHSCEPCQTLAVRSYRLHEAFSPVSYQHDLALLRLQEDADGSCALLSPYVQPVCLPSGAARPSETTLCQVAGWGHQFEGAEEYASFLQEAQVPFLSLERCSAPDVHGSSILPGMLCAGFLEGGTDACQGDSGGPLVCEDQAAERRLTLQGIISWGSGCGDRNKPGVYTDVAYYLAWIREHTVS

[10] = cytotoxicity in HPDE-C7 cells, cell-based, fluorescence, HTS (AID 430); assay type: functional; conditions: Homo sapiens
[11] = NIH-3T3 fibroblast cytotoxicity, dose response, cytotoxicity control, cell-based, fluorescence, Alamar Blue, secondary assay (AID 2327); assay type: functional;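 note: NIH-3T3 mouse fibroblasts cultured with fluconazole at 8 µg/mL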
[12] = cytotoxicity in KRAS-transformed pancreatic duct cells, primary screen, cell-based, fluorescence, HTS (AID 431); assay type: functional; conditions: Homo sapiens;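 note: cell line used: HPDE-C7K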
[13] = C. albicans growth with fluconazole, confirmation, fluorescence, retest (AID 2467); assay type: functional, cell-based
[14] = Luminescence Cell-Based Dose Retest to Confirm Inhibitors of Cancer Stem Cells. [Related pubchem assays (depositor defined):AID2717, AID2721]; assay type: functional; conditions: Homo sapiens
Estrogen receptor beta [15] = biological target: T6, Estrogen receptor beta (Homo sapiens, UniProt Q92731); assay: ERβ–SRC-3 coactivator interaction inhibitors, confirmation, orthogonal assay, biochemical, ELISA, streptavidin-HRP readout (AID 1060)
T6 sequence (Q92731 whole entry): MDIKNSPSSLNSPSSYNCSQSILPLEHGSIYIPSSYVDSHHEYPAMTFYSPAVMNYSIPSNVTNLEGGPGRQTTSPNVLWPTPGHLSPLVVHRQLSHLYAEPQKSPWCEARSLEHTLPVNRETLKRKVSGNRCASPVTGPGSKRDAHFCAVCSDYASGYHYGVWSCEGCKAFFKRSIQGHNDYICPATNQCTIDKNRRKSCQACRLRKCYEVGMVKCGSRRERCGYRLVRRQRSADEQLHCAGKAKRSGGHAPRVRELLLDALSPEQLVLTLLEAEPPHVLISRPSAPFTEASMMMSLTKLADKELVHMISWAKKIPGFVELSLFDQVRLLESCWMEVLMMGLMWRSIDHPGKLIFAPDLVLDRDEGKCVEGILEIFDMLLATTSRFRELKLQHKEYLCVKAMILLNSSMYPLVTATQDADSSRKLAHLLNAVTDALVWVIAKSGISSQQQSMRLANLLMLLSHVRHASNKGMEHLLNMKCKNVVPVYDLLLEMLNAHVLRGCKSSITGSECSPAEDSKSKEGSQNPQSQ

Estrogen receptor beta [16] = biological target: T6, Estrogen receptor beta
Mucolipin-3 = Mucolipin-3 (Homo sapiens, UniProt Q8TDD5); assay: Dose response cell-based high-throughput screening assay for agonists of the transient receptor potential channel ML3 (TRPML3). [Related pubchem assays: 1526, 1424, 1448 ]; assay type: functional
Chain of Mucolipin-3 (Q8TDD5 whole entry): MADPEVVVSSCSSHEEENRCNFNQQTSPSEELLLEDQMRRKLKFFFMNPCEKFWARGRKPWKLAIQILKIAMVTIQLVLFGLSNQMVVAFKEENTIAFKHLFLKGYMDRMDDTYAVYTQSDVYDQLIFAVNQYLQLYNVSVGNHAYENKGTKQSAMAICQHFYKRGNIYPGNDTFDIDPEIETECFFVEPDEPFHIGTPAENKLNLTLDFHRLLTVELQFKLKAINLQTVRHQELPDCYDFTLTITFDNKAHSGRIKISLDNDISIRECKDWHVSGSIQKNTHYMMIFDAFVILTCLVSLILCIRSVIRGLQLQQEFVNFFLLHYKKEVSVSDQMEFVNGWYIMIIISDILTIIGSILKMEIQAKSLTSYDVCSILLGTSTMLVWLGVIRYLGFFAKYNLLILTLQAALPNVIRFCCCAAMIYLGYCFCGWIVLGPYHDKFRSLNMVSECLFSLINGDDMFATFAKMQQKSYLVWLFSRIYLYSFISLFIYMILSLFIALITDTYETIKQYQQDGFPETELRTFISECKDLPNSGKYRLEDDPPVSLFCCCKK

Ion channel NompC = Ion channel NompC (Danio rerio, UniProt Q7T1G6); assay: Fluorescence counterscreen assay for TRPML3 agonists: dose response cell-based high-throughput screening assay to identify agonists of the transient receptor potential channel N1 (TRPN1). [Related pubchem assays: 1526, 1424, 1448 ]; assay type: functional
Chain of Ion channel NompC (Q7T1G6 whole entry): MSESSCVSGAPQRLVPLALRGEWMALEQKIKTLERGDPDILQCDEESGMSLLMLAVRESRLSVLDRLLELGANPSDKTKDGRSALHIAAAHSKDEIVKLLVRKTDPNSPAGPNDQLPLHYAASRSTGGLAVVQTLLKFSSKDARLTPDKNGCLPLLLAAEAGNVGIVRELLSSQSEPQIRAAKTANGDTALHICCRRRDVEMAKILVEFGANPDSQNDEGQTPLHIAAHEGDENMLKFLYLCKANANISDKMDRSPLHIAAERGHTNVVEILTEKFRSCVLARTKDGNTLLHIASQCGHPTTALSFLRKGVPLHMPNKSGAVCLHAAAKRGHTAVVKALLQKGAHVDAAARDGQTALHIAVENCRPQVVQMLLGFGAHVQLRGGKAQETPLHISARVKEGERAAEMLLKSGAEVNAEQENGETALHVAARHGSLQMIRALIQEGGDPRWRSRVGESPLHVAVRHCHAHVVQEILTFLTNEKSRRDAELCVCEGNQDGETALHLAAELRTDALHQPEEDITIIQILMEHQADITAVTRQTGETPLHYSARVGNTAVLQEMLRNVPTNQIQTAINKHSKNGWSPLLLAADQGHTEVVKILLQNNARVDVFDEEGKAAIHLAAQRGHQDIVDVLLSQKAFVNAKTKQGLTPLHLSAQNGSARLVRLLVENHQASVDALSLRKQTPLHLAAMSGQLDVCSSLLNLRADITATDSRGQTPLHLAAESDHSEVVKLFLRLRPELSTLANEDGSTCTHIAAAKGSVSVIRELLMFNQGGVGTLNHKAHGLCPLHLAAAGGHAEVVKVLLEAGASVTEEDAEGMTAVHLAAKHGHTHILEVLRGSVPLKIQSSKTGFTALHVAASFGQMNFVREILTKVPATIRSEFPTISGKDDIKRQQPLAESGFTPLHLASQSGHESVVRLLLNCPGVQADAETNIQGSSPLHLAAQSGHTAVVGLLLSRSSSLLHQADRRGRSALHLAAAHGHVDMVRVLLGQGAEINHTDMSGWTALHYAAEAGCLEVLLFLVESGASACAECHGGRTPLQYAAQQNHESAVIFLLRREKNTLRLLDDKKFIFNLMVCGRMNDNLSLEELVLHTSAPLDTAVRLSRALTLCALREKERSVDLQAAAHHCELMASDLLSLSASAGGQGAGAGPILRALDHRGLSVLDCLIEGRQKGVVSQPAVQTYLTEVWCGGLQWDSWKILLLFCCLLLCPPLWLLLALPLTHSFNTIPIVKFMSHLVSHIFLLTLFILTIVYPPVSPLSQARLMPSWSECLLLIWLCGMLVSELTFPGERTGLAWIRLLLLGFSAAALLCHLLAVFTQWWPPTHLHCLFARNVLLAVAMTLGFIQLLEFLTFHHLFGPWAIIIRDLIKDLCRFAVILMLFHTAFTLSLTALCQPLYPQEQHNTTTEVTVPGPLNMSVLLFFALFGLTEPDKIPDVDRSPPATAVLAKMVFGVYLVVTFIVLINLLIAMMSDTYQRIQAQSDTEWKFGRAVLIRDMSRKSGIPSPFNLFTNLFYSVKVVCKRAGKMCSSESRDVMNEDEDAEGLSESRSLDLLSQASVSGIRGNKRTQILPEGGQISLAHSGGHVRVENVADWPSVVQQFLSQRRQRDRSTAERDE

Structure (SMILES): N#CC(c1ccc(Cl)nn1)c1c(F)cccc1Cl (stereo not drawn)
- AC50 [1]: 4.04 µM (active)

Structure (SMILES): Cc1cc(=O)n(-c2ccccc2)s1
- IC50 (Hexokinase): > 25 µM (inactive)

Structure (SMILES): COC(=O)c1cc(O)cc(OC)c1Oc1cc(C)cc(O)c1C(=O)O [ASTERRIC ACID]
- IC50 [2]: 20.7 µM (inactive)
- IC50 [3]: > 66.6 µM (inactive)
- AC50 (INS1): 8.13 µM (active)
- IC50 (SUMO-activating enzyme [4]): 7.42 µM (active)
- IC50 [5]: 82.7 µM (active)
- IC50 [6]: 5.48 µM (active)
- IC50 [7]: 2.42 µM (not active)
- IC50 (SUMO-activating enzyme [8]): 17.7 µM (active)
- IC50 [9]: 8.12 µM (active)
- IC50 (Bcl-2-like protein 1): 54.2 µM (not active)

Structure (SMILES): O=C(NCC1CCCO1)c1ccc(COCC(F)(F)C(F)F)cc1 (stereo not drawn)
- IC50 (Coagulation factor XII): > 50 µM (inactive)

Structure (SMILES): CCCc1ccc(C(=O)Nc2cc(Cl)ccc2C(=O)O)cc1
- IC50 (Hexokinase): 4.54 µM (active)

Structure (SMILES): Cc1ccc(S(=O)(=O)c2c(C)nn(C(C)(C)C)c2OC(=O)c2ccc(Br)o2)cc1
- EC50 [10]: 4.41 µM (active)
- EC50 [11]: > 160 µM (inconclusive)
- EC50 [12]: 4.56 µM (active)
- EC50 [13]: 0.805 µM (active)
- AC50 [14]: 1.67 µM (active)

Structure (SMILES): COc1cc(CCC(=O)OCC(=O)Nc2ncc(Cl)cc2Cl)cc(OC)c1OC
- IC50 (Estrogen receptor beta [15]): 102 µM (not active)
- IC50 (Estrogen receptor beta [16]): 9.58 µM (active)

Structure (SMILES): O=S(=O)(Oc1ccccc1N1CCCCC1)c1ccccc1
- EC50 (Mucolipin-3): > 29.9 µM (not active)
- EC50 (Ion channel NompC): > 29.9 µM (not active)
